Experimental data from patent EP0711275B1, “(THIO)CARBIMIDINIC ACID DERIVATIVES AND MEDICAMENTS CONTAINING THE SAME” (BOEHRINGER MANNHEIM GMBH, priority 1993, dated 1995).
≈ marks a conversion by molar mass, not a printed value. Read-outs that look alike come from different tables or passages of the source.

Experiments:
[1] = tested on: HIV-1 (Isolat HTLV III B); assay: MT2/MTT test system (antiviral activity in HIV-1-infected MT2 cells); assay type: cell-based; details: read-out: IC50-Werte MT2
Excerpt: (§1) Die antivirale Wirksamkeit einiger ausgewählter Substanzen wurde sowohl in vivo als auch in vitro (Hemmung der reversen Transkriptase RT) untersucht. a) MT2/MTT-Testsystem (in vivo) MT2-Zellen werden mit HIV-1 (Isolat HTLV III B) infiziert. Nach 7 Tagen Inkubation erfolgt der MTT-Test, der die Vitalität der Zellen bestimmt. Die Vitalität der Zellen korreliert mit dem Ausmaß der Virusproduktion. In der folgenden Tabelle werden IC50-Werte angegeben, d. h. diejenige Konzentration der Substanzen, die eine 50%-ige Inhibierung bewirken. b) Hemmung der RT (in vitro) In einem nicht radioaktiven Mikrotiterplattentest wird das Ausmaß der Inhibierung der Aktivität der RT bestimmt. Die Menge an eingebauten Nukleotiden in die zu synthetisierende DNA wird photometrisch bestimmt.

[2] = target: T1, reversen Transkriptase RT (Human immunodeficiency virus type 1 group M subtype B, UniProt P04585); assay: Inhibition of RT, non-radioactive microtitre plate test; assay type: biochemical; details: inhibition of RT activity; incorporated nucleotides determined photometrically; read-out: IC50-Werte RT (converted)
T1 construct: Hemmung der reversen Transkriptase RT
Excerpt: as §1

[3] = Human immunodeficiency virus 1, 168 h, MT2-Zellen infected with HIV-1 (Isolat HTLV III B), 7 days incubation, MTT test of cell vitality

Row | Structure (SMILES) | IC50 [1, 3] [µg/mL] | IC50 [2] [nM] | IC50 ([1]; Human immunodeficiency virus 1, MT2, 168 h) [µg/mL]
1 | N=C(NC(=S)Nc1ccc(Cl)cc1)SC1CCCCC1 [Beispiel 2f, N-(4-Chlorphenylaminothiocarbonyl)thiocarbamidinsäure-cyclohexylester] | < 3 | 314 | 
2 | CC(C)CC(C)SC(=N)NC(=S)Nc1ccc(Cl)cc1 (stereo not shown) [Beispiel 1, N-(4-Chlorphenylaminothiocarbonyl)thiocarbamidinsäure 2-(4-methylpentyl)ester] | 0.6 (≈ 1.82 µM) | 1820 | 
3 | N=C(NC(=S)Nc1ccc(Cl)cc1)SCc1ccccc1 [Beispiel 2e, N-(4-Chlorphenylaminothiocarbonyl)thiocarbamidinsäure-benzylester] | < 3 | 7290 | 
4 | N=C(NC(=S)Nc1ccc(Cl)cc1)SCc1cccc(Cl)c1 [Beispiel 2g, N-(4-Chlorphenylaminothiocarbonyl)thiocarbamidinsäure-3-chlorbenzylester] |  | 891 | < 3
5 | N=C(NC(=S)Nc1ccc(Cl)cc1)Sc1ccccc1 [Beispiel 2n, N-(4-Chlorphenylaminothiocarbonyl)thiocarbamidinsäure-phenylester] |  | 2800 | 
6 | CC(C)CC(C)SC(=N)NC(=S)Nc1cccc(F)c1 (stereo not shown) [Beispiel 2b, N-(3-Fluorphenylaminothiocarbonyl)thiocarbamidinsäure 2-(4-methylpentyl)ester] | 3.3 (≈ 10.5 µM) | 3190 | 
7 | CCCCSC(=N)NC(=S)Nc1ccc(Cl)cc1 [Beispiel 2j, N-(4-Chlorphenylaminothiocarbonyl)thiocarbamidinsäure-butylester] | < 3 | 2520 | 
